Data from patent US20230114728A1 (Venatorx Pharmaceuticals, Inc., priority 2019, published 2023).
Converted amounts (≈) assume the structure as drawn. Where two headings read alike, the source gives them in different places.

Columns and labels:
Assay in all cases: Broth microdilution MIC in iron-depleted CAMHB (IDM)
Type in all cases: cell-based
[1] = test system: A. baumannii CDC-0045 producing TEM-1D, OXA-23, and OXA-69; conditions: Acinetobacter baumannii, read-out: Minimum Inhibitory Concentration, CDC-0045
P. aeruginosa CDC-0110 = conditions: Pseudomonas aeruginosa, CDC0110, read-out: Minimum Inhibitory Concentration, P. aeruginosa CDC-0110
Procedure: (§1) To determine the ability of test compounds to inhibit the growth bacterial strains under conditions of iron-depletion, classic cell based broth microdilution minimum inhibitory concentration (MIC) assays were employed. MIC assays are performed according to CLSI methods except where otherwise noted (CLSI, 2018 and CLSI, 2019). The reference type strain E. coli ATCC 25922 was used to determine the ability of the PBP inhibitors to inhibit the growth of Enterobacteriaceae. Wild-type P. aeruginosa ATCC 27853, A. baumannii ATCC 17978 and A. baumannii ATCC 19606, along with the hyper-permeable P. aeruginosa ATCC 35151, an engineered efflux pump-compromised strain of P. aeruginosa (ΔmexAB-oprM), and an engineered efflux-pump compromised strain of A. baumannii IL123 (ABΔ3-ARAEcPore) were used to determine the ability of PBP inhibitors to penetrate the outer membrane of P. aeruginosa and A. baumannii and assess antibacterial activity against these important gram-negative organisms.
(§2) Briefly, cryo-preserved bacterial cultures of challenge strains are streaked for isolation on appropriate agar medium, in this case cation-adjusted Mueller Hinton agar. Following incubation to allow growth of the colonies, plates are sealed with parafilm and stored refrigerated for up to two weeks. For preparation of assay inoculum and to ensure low variability, at least 5 colonies are picked from the agar plates with an inoculating loop and aseptically transferred to a culture tube containing 3 mL of iron-depleted cation-adjusted Mueller Hinton broth (IDM)—see below for IDM preparation. The broth culture is grown for 3-5 hours at 37° C. with shaking at 200 rpm. Meanwhile, 2-fold serial dilutions of test compounds are conducted in a 96-well plate with a final volume of 75 μL per well at 2-fold the final desired concentration. After the dilution plates are set up the growing cultures are then diluted in a cuvette containing IDM and the optical density is measured at 600 nm. The inoculum is diluted such that 75 μL of this culture in IDM results in a starting bacterial concentration of 2-8×10^5 CFU/mL when added to the dilution plates. The plates are incubated for 16-20 hours for Enterobacteriaceae and Pseudomonas and 20-24 hours for Acinetobacter at 37° C. The MIC values are read visually as the lowest concentration well with no bacterial growth.
(§3) Method for Iron-Depleted Cation-Adjusted Mueller Hinton Broth (IDM) Preparation:
(§4) • Prepare cation-adjusted Mueller Hinton broth as per the manufacturer's recommendations and autoclave. • Add 100 g/L Chelex 100 resin, cover with foil and incubate with stirring for 2 hours • Remove Chelex 100 resin by filtration with 0.45 μm filter flask • Add the following back to the medium: • CaCl2 dihydrate: 82.5 mg/L • MgCl2 hexahydrate: 94.1 mg/L • ZnSO4: 10 μM • Adjust pH of medium to 7.3 with 5 N HCl • Sterilize using a 0.22 µm filter flask

[2] = test system: A. baumannii CDC-0036 OXA-65, and OXA-24; conditions: Acinetobacter baumannii, read-out: Minimum Inhibitory Concentration, CDC-0036
Procedure: (§5) Example IV: In Vitro Antibacterial Assays in Iron-Depleted Cation-Adjusted Mueller-Hinton Broth
as §1, §2, §3, §4

[3] = test system: A. baumannii CDC-0033 producing NDM-1, and OXA-94; conditions: Acinetobacter baumannii, read-out: Minimum Inhibitory Concentration, CDC-0033
Procedure: as §5, §1, §2, §3, §4

A. baumannii ATCC 19606 = conditions: Acinetobacter baumannii
Procedure: as §5, §1, §2, §3, §4

[4] = ATCC19606, read-out: Minimum Inhibitory Concentration, ATCC 19606

| Structure (SMILES) | MIC [1] | MIC (P. aeruginosa CDC-0110) | MIC [2] | MIC [3] | MIC (A. baumannii ATCC 19606; [4]) | MIC (A. baumannii ATCC 19606; ATCC19606, A. baumannii ATCC 19606, iron-depleted MHB (IDM), read-out: Minimum Inhibitory Concentration, ATCC 19606) |
| --- | --- | --- | --- | --- | --- | --- |
| NCCN1CCN(C(=O)N[C@@H](C(=O)N[C@H]2Cc3ccc(F)c(C(=O)O)c3OB2O)c2c(F)cc(O)c(O)c2F)C(=O)C1=O (single isomer, unassigned) [Example 40] | 2 to 4 µg/mL (≈ 3.28 to 6.57 µM) | 2 to 4 µg/mL (≈ 3.28 to 6.57 µM) | 2 to 4 µg/mL (≈ 3.28 to 6.57 µM) | 2 to 4 µg/mL (≈ 3.28 to 6.57 µM) | 0.5 to 1 µg/mL (≈ 0.821 to 1.64 µM) |  |
| NCCCN1CCN(C(=O)N[C@@H](C(=O)N[C@H]2Cc3ccc(F)c(C(=O)O)c3OB2O)c2c(F)cc(O)c(O)c2Cl)C(=O)C1=O (single isomer, unassigned) [Example 27] | 0.5 to 1 µg/mL (≈ 0.782 to 1.56 µM) | 2 to 4 µg/mL (≈ 3.13 to 6.25 µM) | 2 to 4 µg/mL (≈ 3.13 to 6.25 µM) | 0.5 to 1 µg/mL (≈ 0.782 to 1.56 µM) | 0.25 µg/mL (≈ 0.391 µM) |  |
| CCN1CCN(C(=O)NC(C(=O)N[C@H]2Cc3cccc(C(=O)O)c3OB2O)c2ccc(O)c(NC(=O)c3ccc(O)c(O)c3Cl)c2)C(=O)C1=O (stereo partly drawn) [Example 74, (3R)-3-(2-(3-(2-chloro-3,4-dihydroxybenzamido)-4-hydroxyphenyl)-2-(4-ethyl-2,3-dioxopiperazine-1-carboxamido)acetamido)-2-hydroxy-3,4-dihydro-2H-benzo[e][1,2]oxaborinine-8-carboxylic acid] | 32 to 64 µg/mL (≈ 45.1 to 90.2 µM) | 2 to 4 µg/mL (≈ 2.82 to 5.63 µM) | 32 to 64 µg/mL (≈ 45.1 to 90.2 µM) | 32 to 64 µg/mL (≈ 45.1 to 90.2 µM) | 32 to 64 µg/mL (≈ 45.1 to 90.2 µM) |  |
| O=C(NC(C(=O)N[C@H]1Cc2ccc(F)c(C(=O)O)c2OB1O)c1ncc(O)cc1F)c1ccc(O)c(O)c1Cl (stereo partly drawn) [Example 8, (3R)-3-(2-(2-chloro-3,4-dihydroxybenzamido)-2-(3-fluoro-5-hydroxypyridin-2-yl)acetamido)-7-fluoro-2-hydroxy-3,4-dihydro-2H-benzo[e][1,2]oxaborinine-8-carboxylic acid] | 32 to 64 µg/mL (≈ 56.8 to 114 µM) | 0.5 to 1 µg/mL (≈ 0.887 to 1.77 µM) | 32 to 64 µg/mL (≈ 56.8 to 114 µM) | 32 to 64 µg/mL (≈ 56.8 to 114 µM) | 32 to 64 µg/mL (≈ 56.8 to 114 µM) |  |
| O=C(O)c1c(F)ccc2c1OB(O)[C@@H](NC(=O)C(NC(=O)N1CCN(CCBr)C(=O)C1=O)c1c(F)cc(O)c(O)c1F)C2 (stereo partly drawn) [Example 38, (3R)-3-(2-(4-(2-bromoethyl)-2,3-dioxopiperazine-1-carboxamido)-2-(2,6-difluoro-3,4-dihydroxyphenyl)acetamido)-7-fluoro-2-hydroxy-3,4-dihydro-2H-benzo[e][1,2]oxaborinine-8-carboxylic acid] | 0.5 to 1 µg/mL (≈ 0.743 to 1.49 µM) | 0.5 to 1 µg/mL (≈ 0.743 to 1.49 µM) | 2 to 4 µg/mL (≈ 2.97 to 5.94 µM) | 2 to 4 µg/mL (≈ 2.97 to 5.94 µM) | 0.25 µg/mL (≈ 0.371 µM) |  |
| CCN1CCN(C(=O)NC(C(=O)N[C@H]2Cc3cccc(C(=O)O)c3OB2O)c2cccc(NC(=O)c3ccc(O)c(O)c3Cl)c2)C(=O)C1=O (stereo partly drawn) [Example 73, (3R)-3-(2-(3-(2-chloro-3,4-dihydroxybenzamido)phenyl)-2-(4-ethyl-2,3-dioxopiperazine-1-carboxamido)acetamido)-2-hydroxy-3,4-dihydro-2H-benzo[e][1,2]oxaborinine-8-carboxylic acid] | 32 to 64 µg/mL (≈ 46.1 to 92.2 µM) | 0.5 to 1 µg/mL (≈ 0.721 to 1.44 µM) | 32 to 64 µg/mL (≈ 46.1 to 92.2 µM) | 32 to 64 µg/mL (≈ 46.1 to 92.2 µM) | 2 to 4 µg/mL (≈ 2.88 to 5.76 µM) |  |
| O=C(O)c1c(F)ccc2c1OB(O)[C@@H](NC(=O)[C@H](NC(=O)N1CCNC1=O)c1c(F)cc(O)c(O)c1Cl)C2 (single isomer, unassigned) [Example 34] | 0.25 µg/mL (≈ 0.451 µM) | 0.5 to 1 µg/mL (≈ 0.901 to 1.8 µM) | 0.5 to 1 µg/mL (≈ 0.901 to 1.8 µM) | 0.5 to 1 µg/mL (≈ 0.901 to 1.8 µM) | 0.25 µg/mL (≈ 0.451 µM) |  |
| CS(=O)(=O)N1CCN(C(=O)NC(C(=O)N[C@H]2Cc3ccc(F)c(C(=O)O)c3OB2O)c2ccc(O)c(O)c2Cl)C1=O (stereo partly drawn) [Example 23, (3R)-3-(2-(2-chloro-3,4-dihydroxyphenyl)-2-(3-(methylsulfonyl)-2-oxoimidazolidine-1-carboxamido)acetamido)-7-fluoro-2-hydroxy-3,4-dihydro-2H-benzo[e][1,2]oxaborinine-8-carboxylic acid] | 0.5 to 1 µg/mL (≈ 0.813 to 1.63 µM) | 2 to 4 µg/mL (≈ 3.25 to 6.51 µM) | 8 to 16 µg/mL (≈ 13 to 26 µM) | 8 to 16 µg/mL (≈ 13 to 26 µM) | 0.25 µg/mL (≈ 0.407 µM) |  |
| O=C(O)c1ccc(C(NC(=O)c2c(F)cc(O)c(O)c2Cl)C(=O)N[C@H]2Cc3ccc(F)c(C(=O)O)c3OB2O)cc1F (stereo partly drawn) [Example 71, (3R)-3-(2-(4-carboxy-3-fluorophenyl)-2-(2-chloro-6-fluoro-3,4-dihydroxybenzamido)acetamido)-7-fluoro-2-hydroxy-3,4-dihydro-2H-benzo[e][1,2]oxaborinine-8-carboxylic acid] | 32 to 64 µg/mL (≈ 52.6 to 105 µM) | 0.25 µg/mL (≈ 0.411 µM) | 32 to 64 µg/mL (≈ 52.6 to 105 µM) | 32 to 64 µg/mL (≈ 52.6 to 105 µM) | 32 to 64 µg/mL (≈ 52.6 to 105 µM) |  |
| NCCCN1CCN(C(=O)N[C@H](C(=O)N[C@H]2Cc3ccc(F)c(C(=O)O)c3OB2O)c2ccc(O)c(O)c2Cl)C(=O)C1=O (single isomer, unassigned) [Example 28] | 32 to 64 µg/mL (≈ 51.5 to 103 µM) | 8 to 16 µg/mL (≈ 12.9 to 25.7 µM) | 32 to 64 µg/mL (≈ 51.5 to 103 µM) | 32 to 64 µg/mL (≈ 51.5 to 103 µM) |  | 8 to 16 µg/mL (≈ 12.9 to 25.7 µM) |
| NC(C(=O)N[C@H]1Cc2ccc(F)c(C(=O)O)c2OB1O)c1c(F)cc(O)c(O)c1Cl (stereo partly drawn) [Example 25, (3R)-3-(2-amino-2-(2-chloro-6-fluoro-3,4-dihydroxyphenyl)acetamido)-7-fluoro-2-hydroxy-3,4-dihydro-2H-benzo[e][1,2]oxaborinine-8-carboxylic acid] | 32 to 64 µg/mL (≈ 72.3 to 145 µM) | 32 to 64 µg/mL (≈ 72.3 to 145 µM) | 32 to 64 µg/mL (≈ 72.3 to 145 µM) | 32 to 64 µg/mL (≈ 72.3 to 145 µM) | 32 to 64 µg/mL (≈ 72.3 to 145 µM) |  |
| O=C(NC(C(=O)N[C@H]1Cc2ccc(F)c(C(=O)O)c2OB1O)c1ncc(O)cc1F)c1c(F)cc(O)c(O)c1Cl (stereo partly drawn) [Example 10, (3R)-3-(2-(2-chloro-6-fluoro-3,4-dihydroxybenzamido)-2-(3-fluoro-5-hydroxypyridin-2-yl)acetamido)-7-fluoro-2-hydroxy-3,4-dihydro-2H-benzo[e][1,2]oxaborinine-8-carboxylic acid] | 32 to 64 µg/mL (≈ 55 to 110 µM) | 0.5 to 1 µg/mL (≈ 0.86 to 1.72 µM) | 32 to 64 µg/mL (≈ 55 to 110 µM) | 32 to 64 µg/mL (≈ 55 to 110 µM) | 32 to 64 µg/mL (≈ 55 to 110 µM) |  |
| O=C(Nc1ccc(O)c(O)c1Cl)NC(C(=O)N[C@H]1Cc2ccc(F)c(C(=O)O)c2OB1O)c1ncc(O)cc1F (stereo partly drawn) [Example 9, (3R)-3-(2-(3-(2-chloro-3,4-dihydroxyphenyl)ureido)-2-(3-fluoro-5-hydroxypyridin-2-yl)acetamido)-7-fluoro-2-hydroxy-3,4-dihydro-2H-benzo[e][1,2]oxaborinine-8-carboxylic acid] | 32 to 64 µg/mL (≈ 55.3 to 111 µM) | 32 to 64 µg/mL (≈ 55.3 to 111 µM) | 32 to 64 µg/mL (≈ 55.3 to 111 µM) | 32 to 64 µg/mL (≈ 55.3 to 111 µM) | 32 to 64 µg/mL (≈ 55.3 to 111 µM) |  |
| O=C(O)c1c(F)ccc2c1OB(O)[C@@H](NC(=O)C(NC(=O)N1CCN(CCF)C(=O)C1=O)c1c(F)cc(O)c(O)c1F)C2 (stereo partly drawn) [Example 37, (3R)-3-(2-(2,6-difluoro-3,4-dihydroxyphenyl)-2-(4-(2-fluoroethyl)-2,3-dioxopiperazine-1-carboxamido)acetamido)-7-fluoro-2-hydroxy-3,4-dihydro-2H-benzo[e][1,2]oxaborinine-8-carboxylic acid] | 0.5 to 1 µg/mL (≈ 0.817 to 1.63 µM) | 0.5 to 1 µg/mL (≈ 0.817 to 1.63 µM) | 2 to 4 µg/mL (≈ 3.27 to 6.53 µM) | 2 to 4 µg/mL (≈ 3.27 to 6.53 µM) | 0.25 µg/mL (≈ 0.408 µM) |  |
| CC(C)(C)[C@@H](NC(=O)N1CCN(CCNC(=O)c2c(F)cc(O)c(O)c2Cl)C(=O)C1=O)C(=O)N[C@H]1Cc2ccc(F)c(C(=O)O)c2OB1O [Example 80, (R)-3-((R)-2-(4-(2-(2-chloro-6-fluoro-3,4-dihydroxybenzamido)ethyl)-2,3-dioxopiperazine-1-carboxamido)-3,3-dimethylbutanamido)-7-fluoro-2-hydroxy-3,4-dihydro-2H-benzo[e][1,2]oxaborinine-8-carboxylic acid] | 8 to 16 µg/mL (≈ 11.3 to 22.5 µM) | 0.5 to 1 µg/mL (≈ 0.704 to 1.41 µM) | 8 to 16 µg/mL (≈ 11.3 to 22.5 µM) | 8 to 16 µg/mL (≈ 11.3 to 22.5 µM) | 2 to 4 µg/mL (≈ 2.82 to 5.63 µM) |  |
